Test results published in ChEMBL document CHEMBL4765415 (Eur J Med Chem, 2020).
Values belong to the molecule of their own block, whether it stands above or below them. Active and inactive are the calls of the source. The calls are words filed in the database; no cut-off is given here.

What was measured:
Mus musculus [1] = test: Analgesic activity in albino mouse assessed as inhibition of acetic acid-induced writhing at 10 mg/kg, po administered 1 hr prior to acetic acid challenge and measured after 5 to 15 mins relative to celecoxib; assay type: functional; details: time 60-75 min
[2] = target: Prostaglandin G/H synthase 1 (Homo sapiens, UniProt P23219); test: Inhibition of recombinant human COX1 using arachidonic acid as substrate preincubated for 5 mins followed by substrate addition and measured after 2 mins by Ellman's reagent based enzyme immunoassay; assay type: ADME
[3] = target: T1, Prostaglandin G/H synthase 2 (Homo sapiens, UniProt P35354); test: Inhibition of recombinant human COX2 using arachidonic acid as substrate preincubated for 5 mins followed by substrate addition and measured after 2 mins by Ellman's reagent based enzyme immunoassay; assay type: ADME
T1 sequence (P35354 whole entry): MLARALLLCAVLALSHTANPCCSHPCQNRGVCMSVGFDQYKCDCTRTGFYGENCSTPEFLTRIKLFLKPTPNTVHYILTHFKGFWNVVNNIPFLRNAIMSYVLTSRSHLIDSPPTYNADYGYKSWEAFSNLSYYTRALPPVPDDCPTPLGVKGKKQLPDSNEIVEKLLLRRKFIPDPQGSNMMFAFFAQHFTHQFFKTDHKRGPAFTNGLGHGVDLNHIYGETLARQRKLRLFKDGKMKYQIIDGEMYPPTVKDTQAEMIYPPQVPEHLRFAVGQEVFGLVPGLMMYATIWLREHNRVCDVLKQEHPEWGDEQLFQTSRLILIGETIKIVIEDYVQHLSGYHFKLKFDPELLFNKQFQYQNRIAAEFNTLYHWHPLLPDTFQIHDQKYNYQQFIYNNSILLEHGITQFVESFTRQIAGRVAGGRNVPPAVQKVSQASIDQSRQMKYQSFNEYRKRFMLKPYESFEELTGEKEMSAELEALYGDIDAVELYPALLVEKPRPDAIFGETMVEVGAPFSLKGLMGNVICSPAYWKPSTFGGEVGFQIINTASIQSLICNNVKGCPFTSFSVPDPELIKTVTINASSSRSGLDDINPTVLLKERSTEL

[4] = Selectivity index, ratio of IC50 for recombinant human COX1 to recombinant human COX2
[5] = target: T2, Bifunctional epoxide hydrolase 2 (Homo sapiens, UniProt P34913); test: Inhibition of human sEH using epoxy flour 7 as substrate measured after 30 mins by cell-based fluorescence assay
T2 sequence (P34913 whole entry): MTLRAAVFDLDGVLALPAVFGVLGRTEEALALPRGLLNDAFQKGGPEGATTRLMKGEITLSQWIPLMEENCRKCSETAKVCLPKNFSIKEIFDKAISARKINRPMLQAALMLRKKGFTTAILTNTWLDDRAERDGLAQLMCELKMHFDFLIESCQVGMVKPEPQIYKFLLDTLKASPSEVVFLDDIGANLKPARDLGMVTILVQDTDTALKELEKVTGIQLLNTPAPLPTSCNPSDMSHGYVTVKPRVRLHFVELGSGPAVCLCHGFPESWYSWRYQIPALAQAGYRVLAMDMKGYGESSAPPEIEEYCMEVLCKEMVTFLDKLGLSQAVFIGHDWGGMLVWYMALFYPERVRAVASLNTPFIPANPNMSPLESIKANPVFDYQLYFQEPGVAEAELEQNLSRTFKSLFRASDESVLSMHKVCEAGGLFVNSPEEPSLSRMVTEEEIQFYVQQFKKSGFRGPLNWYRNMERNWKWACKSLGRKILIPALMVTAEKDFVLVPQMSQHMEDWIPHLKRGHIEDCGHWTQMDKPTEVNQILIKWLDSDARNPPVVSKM

Mus musculus [6] = test: Analgesic activity in albino mouse assessed as inhibition of acetic acid-induced writhing at 10 mg/kg, po administered 1 hr prior to acetic acid challenge and measured after 5 to 15 mins relative to control; assay type: functional; details: time 60-75 min
Rattus norvegicus [7] = test: Antiinflammatory activity in albino rat model of carrageenan-induced paw edema assessed as inhibition of paw edema at 50 mg/kg, po administered 1 hr prior to carrageenan challenge and measured after 1 hr by Vernier caliper method relative to control; assay type: functional; details: time 2 hrs
Rattus norvegicus [8] = test: Antiinflammatory activity in albino rat model of carrageenan-induced paw edema assessed as inhibition of paw edema at 50 mg/kg, po administered 1 hr prior to carrageenan challenge and measured after 3 hrs by Vernier caliper method relative to control; assay type: functional; details: time 4 hrs
Rattus norvegicus [9] = test: Antiinflammatory activity in albino rat model of carrageenan-induced paw edema assessed as inhibition of paw edema at 50 mg/kg, po administered 1 hr prior to carrageenan challenge and measured after 5 hrs by Vernier caliper method relative to control; assay type: functional; details: time 6 hrs
Rattus norvegicus [10] = test: Cardioprotective activity in celecoxib-induced cardiotoxicity in albino Wistar rat assessed as change in serum TNFalpha level at 100 mg/kg, po administered for 2 weeks and measured on day 15 by ELISA (reference value: 748.67 +/- 43.15 pg/ml); assay type: functional; details: time 15 day
Rattus norvegicus [11] = test: Cardioprotective activity in celecoxib-induced cardiotoxicity in albino Wistar rat assessed as change in serum troponin-I level at 100 mg/kg, po administered for 2 weeks and measured on day 15 by ELISA (reference value: 340 +/- 11.56 pg/ml); assay type: functional; details: time 15 day
Rattus norvegicus [12] = test: Cardioprotective activity in celecoxib-induced cardiotoxicity in albino Wistar rat assessed as change in serum LDH level at 100 mg/kg, po administered for 2 weeks and measured on day 15 by spectrophotometry (reference value: 2091.3 +/- 99.9 IU/L); assay type: functional; details: time 15 day
Rattus norvegicus [13] = test: Cardioprotective activity in celecoxib-induced cardiotoxicity in albino Wistar rat assessed as change in serum creatine kinase-MB level at 100 mg/kg, po administered for 2 weeks and measured on day 15 by spectrophotometry (reference value: 95.33 +/- 4 IU/L); assay type: functional; details: time 15 day
Rattus norvegicus [14] = test: Cardioprotective activity in celecoxib-induced cardiotoxicity in albino Wistar rat assessed as restoration of GSH level in cardiac tissue at 100 mg/kg, po administered for 2 weeks and measured on day 15; assay type: functional, organism-based; details: time 15.0 day
[15] = Cardiotoxicity in albino Wistar rat assessed as change in serum PGI2 level at 100 mg/kg, po administered for 2 weeks and measured on day 15 by ELISA; assay type: toxicity, organism-based; details: in vivo, 360 h, time 15 day
Rattus norvegicus [16] = test: Cardioprotective activity in celecoxib-induced cardiotoxicity in albino Wistar rat assessed as restoration of serum PGI2 level at 100 mg/kg, po administered for 2 weeks and measured on day 15 by ELISA; assay type: functional, organism-based; details: time 15.0 day
Rattus norvegicus [17] = test: Cardioprotective activity in celecoxib-induced cardiotoxicity in albino Wistar rat assessed as reduction in congestion in myocardium blood vessel at 100 mg/kg, po administered for 2 weeks and measured on day 15 by H and E staining based histopathological analysis; assay type: functional, organism-based; details: time 15.0 day
Rattus norvegicus [18] = test: Cardioprotective activity in celecoxib-induced cardiotoxicity in albino Wistar rat assessed as reduction in congestion in coronary artery at 100 mg/kg, po administered for 2 weeks and measured on day 15 by H and E staining based histopathological analysis; assay type: functional, organism-based; details: time 15.0 day
Rattus norvegicus [19] = test: Cardioprotective activity in celecoxib-induced cardiotoxicity in albino Wistar rat assessed as reduction in edema in myocardium blood vessel at 100 mg/kg, po administered for 2 weeks and measured on day 15 by H and E staining based histopathological analysis; assay type: functional, organism-based; details: time 15.0 day
Rattus norvegicus [20] = test: Cardioprotective activity in celecoxib-induced cardiotoxicity in albino Wistar rat assessed as reduction in edema in coronary artery at 100 mg/kg, po administered for 2 weeks and measured on day 15 by H and E staining based histopathological analysis; assay type: functional, organism-based; details: time 15.0 day

Chain of Prostaglandin G/H synthase 1 (P23219 whole entry): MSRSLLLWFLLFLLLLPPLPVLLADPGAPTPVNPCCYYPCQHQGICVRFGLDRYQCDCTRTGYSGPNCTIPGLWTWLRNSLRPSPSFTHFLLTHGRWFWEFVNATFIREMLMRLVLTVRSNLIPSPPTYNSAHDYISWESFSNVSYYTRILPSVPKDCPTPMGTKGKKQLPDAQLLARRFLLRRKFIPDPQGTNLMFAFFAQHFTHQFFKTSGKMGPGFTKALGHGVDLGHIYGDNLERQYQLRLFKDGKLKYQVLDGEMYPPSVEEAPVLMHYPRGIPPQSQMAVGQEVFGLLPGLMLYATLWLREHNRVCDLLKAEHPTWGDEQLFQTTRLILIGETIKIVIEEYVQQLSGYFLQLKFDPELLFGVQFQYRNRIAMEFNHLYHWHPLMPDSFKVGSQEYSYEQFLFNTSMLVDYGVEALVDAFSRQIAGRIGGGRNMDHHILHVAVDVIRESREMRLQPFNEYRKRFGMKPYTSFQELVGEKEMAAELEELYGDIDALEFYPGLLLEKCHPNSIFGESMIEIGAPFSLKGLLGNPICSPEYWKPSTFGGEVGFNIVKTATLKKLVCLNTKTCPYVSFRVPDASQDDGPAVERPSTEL

Compound: NS(=O)(=O)c1ccc(-n2nc(NC(=O)NC34CC5CC(CC(C5)C3)C4)cc2-c2ccccc2)cc1
fold change (FC) (Mus musculus [1]): 1.83
IC50 [2]: 11800 nM
IC50 [3]: 1850 nM
Ratio IC50 [4]: 6.41
IC50 [5]: 0.55 nM
inhibition in vivo at 10 mg/kg (Mus musculus [6]): 24.6%
inhibition in vivo at 50 mg/kg (Rattus norvegicus [7]): 62.2%
inhibition in vivo at 50 mg/kg (Rattus norvegicus [8]): 92%
inhibition in vivo at 50 mg/kg (Rattus norvegicus [9]): 93.8%
Activity (Rattus norvegicus [10]): 322 pg/mL
Activity (Rattus norvegicus [11]): 150 pg/mL
Activity (Rattus norvegicus [12]): 1585 IU/L
Activity (Rattus norvegicus [13]): 22 IU/L
Activity (Rattus norvegicus [14]): Active
Activity [15]: Toxic
Activity (Rattus norvegicus [16]): Active
Activity (Rattus norvegicus [17]): Active
Activity (Rattus norvegicus [18]): Active
Activity (Rattus norvegicus [19]): Active
Activity (Rattus norvegicus [20]): Active

Compound: NS(=O)(=O)c1ccc(-n2nc(NC(=O)NCCCCCCCCCCC(=O)O)cc2-c2ccccc2)cc1
IC50 [5]: 1.57 nM

Compound: Cc1ccc(-c2cc(C(F)(F)F)nn2-c2ccc(S(N)(=O)=O)cc2)cc1 [CELECOXIB]
inhibition in vivo at 10 mg/kg (Mus musculus [6]): 13.4%
inhibition in vivo at 50 mg/kg (Rattus norvegicus [7]): 81.2%
inhibition in vivo at 50 mg/kg (Rattus norvegicus [8]): 82.7%
inhibition in vivo at 50 mg/kg (Rattus norvegicus [9]): 88.3%
Activity [15]: Toxic

Compound: CCOC(=O)C1CCN(C(=O)c2cc(-c3ccccc3)n(-c3ccc(S(N)(=O)=O)cc3)n2)CC1
IC50 [5]: 1.61 nM

Compound: NS(=O)(=O)c1ccc(-n2nc(C(=O)NC34CC5CC(CC(C5)C3)C4)cc2-c2ccccc2)cc1
fold change (FC) (Mus musculus [1]): 4.66
IC50 [2]: 8990 nM
IC50 [3]: 2150 nM
Ratio IC50 [4]: 4.18
IC50 [5]: 1.15 nM
inhibition in vivo at 10 mg/kg (Mus musculus [6]): 62.7%
inhibition in vivo at 50 mg/kg (Rattus norvegicus [7]): 42%
inhibition in vivo at 50 mg/kg (Rattus norvegicus [8]): 76.5%
inhibition in vivo at 50 mg/kg (Rattus norvegicus [9]): 84.2%

Compound: CCOC(=O)C1CCN(C(=O)Nc2cc(-c3ccccc3)n(-c3ccc(S(N)(=O)=O)cc3)n2)CC1
IC50 [5]: 1.74 nM

Now from value to molecule:

IC50 [5]: 3.31 nM
Compound: NS(=O)(=O)c1ccc(-n2nc(C(=O)NCCCCCCCCCCC(=O)O)cc2-c2ccccc2)cc1

IC50 [5]: 1.84 nM
Compound: NS(=O)(=O)c1ccc(-n2nc(C(=O)NCCCC(=O)O)cc2-c2ccccc2)cc1

IC50 [5]: 2.38 nM
Compound: NS(=O)(=O)c1ccc(-n2nc(C(=O)NC3CCCCC3)cc2-c2ccccc2)cc1

IC50 [5]: 1.21 nM
Compound: NS(=O)(=O)c1ccc(-n2nc(C(=O)Nc3ccc(C(F)(F)F)cc3)cc2-c2ccccc2)cc1

IC50 [5]: 4.01 nM
Compound: NS(=O)(=O)c1ccc(-n2nc(NC(=O)NCCCC(=O)O)cc2-c2ccccc2)cc1

IC50 [5]: 0.4 nM
Compound: NS(=O)(=O)c1ccc(-n2nc(NC(=O)Nc3ccc(C(F)(F)F)cc3)cc2-c2ccccc2)cc1

IC50 [5]: 0.98 nM
Compound: NS(=O)(=O)c1ccc(-n2nc(NC(=O)NC3CCCCC3)cc2-c2ccccc2)cc1
